Measured values published in patent publication US20240260573A1, “HEAT TOLERANCE-INDUCING AGENT FOR PLANTS AND METHOD FOR INDUCING HEAT TOLERANCE OF PLANTS” (AGC Inc., priority 2021, published 2024).

What was measured:
[1] = Measurement of active ingredient support ratio (solvent extraction / gas chromatography); type: physicochemical
Protocol: First, 5 g of a mixed solvent of chloroform:methanol=9:1 (volume ratio) was added to the vial containing the sample, and the mixture was stirred for one minute to extract the supported 2-hexenal. Hexadecane was then added as an internal standard, and the resulting mixture was filtered. The thus obtained filtrate (the extract solution containing the internal standard) was analyzed by gas chromatography, and the amount (mg) of supported 2-hexenal was calculated using a calibration curve prepared in advance using hexadecane as an internal standard. The support ratio (%) of 2-hexenal within 100% of the sample was determined from the calculated supported amount (mg) and the mass of the sample inside the vial.
With the exception that chloroform was added to the vial containing the sample to dissolve the sample, hexadecane was added to the resulting solution as an internal standard, and analysis was then conducted by gas chromatography (7890A apparatus manufactured by Agilent Technologies, Inc.), the support ratio (%) of 2-hexenal within 100% of the sample was determined in the same manner as that described above in [Evaluation 1a].
In Example 12, because 2-hexenal was used alone, the initial 2-hexenal support ratio was deemed to be 100%.
With the exception of using 3-hepten-2-one instead of 2-hexenal as the active ingredient, evaluations were conducted in the same manner as Example 1. […]

[2] = Measurement of active ingredient retention rate after 7 days open storage at 23° C. or 50° C.; type: physicochemical; conditions: for residual active ingredient after storage (in words): after 7 days storage at either 23° C. or 50° C.
Protocol: The vial containing the sample was stored, without a lid attached, in an environment at either 23° C. or 50° C. for a period of 7 days. Following this storage period, the support ratio (%) of 2-hexenal was determined in the same manner as that described above in [Evaluation 1a].
Based on the measurement results, the 2-hexenal retention rates following storage at 23° C. and at 50° C. were each calculated using the formula below. In the formula, the [initial 2-hexenal content] represents the value determined in the above “Measurement of 2-Hexenal Support Ratio”.
2-Hexenal retention rate (%)=2-hexenal support ratio (%) after storage/initial 2-hexenal support ratio (%)×100
The vial containing the sample was stored in an environment at either 23° C. or 50° C. for a period of 7 days. Following this storage period, the support ratio (%) of 2-hexenal was determined in the same manner as that described above in [Evaluation 2a].
Based on the measurement result, the 2-hexenal retention rate (%) was determined in the same manner as that described above in [Evaluation 1b].
The vial containing the sample was stored in an environment at either 23° C. or 50° C. for a period of 7 days. Following this storage period, the sample mass (g) remaining in the vial was measured, and this value was deemed the 2-hexenal support ratio (%) after storage.
With the exception of using 3-hepten-2-one instead of 2-hexenal as the active ingredient, evaluations were conducted in the same manner as Example 1.
An agent prepared by mixing trioxane and 3-hepten-2-one (in a mass ratio of 100:0.35) and then freeze drying the mixture was used as a heat tolerance-inducing agent, and evaluations were conducted in the same manner as Example 11.
Example 15 used 3-hepten-2-one alone as a heat tolerance-inducing agent. Evaluations were conducted in the same manner as Example 12.

[3] = sample for 23° C. storage, before storage
[4] = sample for 50° C. storage, before storage

| SMILES | 2-hexenal support ratio ([1]; 2-hexenal used alone, initial support ratio deemed to be 100%) [%] | 2-hexenal support amount, Storage at 23° C., After 7 days ([2]; 23° C., 7 days, vial without lid) [mg] | 2-hexenal support amount, Storage at 50° C., After 7 days ([2]; 50° C., 7 days, vial without lid) [mg] | 2-hexenal retention rate 23° C. ([2]; after 7 days storage at 23° C.) [%] | 2-hexenal retention rate 50° C. ([2]; after 7 days storage at 50° C.) [%] | residual active ingredient after storage (in words) [2] | 2-hexenal support amount, Storage at 23° C., Initial [2, 3] [mg] | 2-hexenal support amount, Storage at 50° C., Initial [2, 4] [mg] | 3-hepten-2-one support ratio ([1]; 3-hepten-2-one used alone, evaluated as Example 12 (deemed 100%)) [%] | 3-hepten-2-one support amount, Storage at 23° C., After 7 days ([2]; 23° C., 7 days) [mg] | 3-hepten-2-one support amount, Storage at 50° C., After 7 days ([2]; 50° C., 7 days) [mg] | 3-hepten-2-one retention rate 23° C. ([2]; after 7 days storage at 23° C.) [%] | 3-hepten-2-one retention rate 50° C. ([2]; after 7 days storage at 50° C.) [%] | 3-hepten-2-one support amount, Storage at 23° C., Initial [2, 3] [mg] | 3-hepten-2-one support amount, Storage at 50° C., Initial [2, 4] [mg] |
| --- | --- | --- | --- | --- | --- | --- | --- | --- | --- | --- | --- | --- | --- | --- | --- |
| CCCC=CC=O [Example 12, 2-hexenal] | 100 | 0 | 0 | 0 | 0 | no residual active ingredient was retained | 13 | 12.5 |  |  |  |  |  |  |  |
| CCCC=CC(C)=O [Example 15, 3-hepten-2-one] |  |  |  |  |  | no residual active ingredient was retained |  |  | 100 | 0 | 0 | 0 | 0 | 11.5 | 10.7 |
